± gives the expanded uncertainty stated by the source.

The conditions of one series: 308.15 K; 100 kPa; Liquid; Capillary tube (Ostwald / Ubbelohde) method.
Usually viscosity stands for the internal friction of a fluid under shear. As to `CC[S+](CC)CC.O=S(=O)([N-]S(=O)(=O)C(F)(F)F)C(F)(F)F` [triethylsulfonium bis((trifluoromethyl)sulfonyl)imide], the viscosity was found to be 22.64 ± 1.8 mPa·s.

Still in this series, the particulars now being: 308.15 K; 100 kPa; Liquid; Frequency=3 MHz; Single path-length method.
The term speed of sound denotes how fast a sound wave travels through the sample. Turning to `C=CCn1cc[n+](C)c1.O=S(=O)([N-]S(=O)(=O)C(F)(F)F)C(F)(F)F`, the speed of sound came to 1217.8 ± 6.2 m/s.

For `CCCC[N+]1(C)CCCC1.O=S(=O)([N-]S(=O)(=O)C(F)(F)F)C(F)(F)F`, the speed of sound was determined as 1247.1 ± 6.3 m/s.

For `O=S(=O)([N-]S(=O)(=O)C(F)(F)F)C(F)(F)F.On1cc[n+](O)c1` [1,3-dihydroxyimidazolium bis(trifluoromethylsulfonyl)imide], the speed of sound is 1174.1 ± 6.3 m/s.

For the molecule `CCCO` [propan-1-ol], the speed of sound stood at 1172.4 ± 6 m/s.

Take `CC[S+](CC)CC.O=S(=O)([N-]S(=O)(=O)C(F)(F)F)C(F)(F)F` [triethylsulfonium bis((trifluoromethyl)sulfonyl)imide]: the speed of sound is on record as 1222.4 ± 6.1 m/s.

The series is the same for the next values; noted with them: 308.15 K; 100 kPa; Liquid; Vibrating tube method.
As a reminder, the mass density is the mass of a sample divided by its volume. Regarding `C=CCn1cc[n+](C)c1.O=S(=O)([N-]S(=O)(=O)C(F)(F)F)C(F)(F)F`, the mass density is 1489.48 ± 3.2 kg/m3.

For the molecule `CCCC[N+]1(C)CCCC1.O=S(=O)([N-]S(=O)(=O)C(F)(F)F)C(F)(F)F`, the mass density was 1385.44 ± 3.2 kg/m3.

With `O=S(=O)([N-]S(=O)(=O)C(F)(F)F)C(F)(F)F.On1cc[n+](O)c1` [1,3-dihydroxyimidazolium bis(trifluoromethylsulfonyl)imide], the mass density was 1728.64 ± 4.3 kg/m3.

With `CCCO` [propan-1-ol], the mass density turned out to be 791.54 ± 1.6 kg/m3.

Regarding `CC[S+](CC)CC.O=S(=O)([N-]S(=O)(=O)C(F)(F)F)C(F)(F)F` [triethylsulfonium bis((trifluoromethyl)sulfonyl)imide], the mass density stood at 1450.33 ± 3 kg/m3.

Still in this series, the particulars now being: 313.15 K; 100 kPa; Liquid; Capillary tube (Ostwald / Ubbelohde) method.
As for `C=CCn1cc[n+](C)c1.O=S(=O)([N-]S(=O)(=O)C(F)(F)F)C(F)(F)F`, the viscosity was 20.41 ± 1.6 mPa·s.

For the molecule `CCCC[N+]1(C)CCCC1.O=S(=O)([N-]S(=O)(=O)C(F)(F)F)C(F)(F)F`, the viscosity was 41.08 ± 3.3 mPa·s.

Consider `O=S(=O)([N-]S(=O)(=O)C(F)(F)F)C(F)(F)F.On1cc[n+](O)c1` [1,3-dihydroxyimidazolium bis(trifluoromethylsulfonyl)imide], for which the viscosity is given as 75.56 ± 6.1 mPa·s.

`CCCO` [propan-1-ol]: the viscosity was found to be 1.348 ± 0.11 mPa·s.

As to `CC[S+](CC)CC.O=S(=O)([N-]S(=O)(=O)C(F)(F)F)C(F)(F)F` [triethylsulfonium bis((trifluoromethyl)sulfonyl)imide], the viscosity was found to be 19.24 ± 1.5 mPa·s.

Staying with this series, now noted: 313.15 K; 100 kPa; Liquid; Frequency=3 MHz; Single path-length method.
Take `C=CCn1cc[n+](C)c1.O=S(=O)([N-]S(=O)(=O)C(F)(F)F)C(F)(F)F`: the speed of sound is 1206.8 ± 6.2 m/s.

Turning to `CCCC[N+]1(C)CCCC1.O=S(=O)([N-]S(=O)(=O)C(F)(F)F)C(F)(F)F`, the speed of sound was 1236.1 ± 6.3 m/s.

As to `O=S(=O)([N-]S(=O)(=O)C(F)(F)F)C(F)(F)F.On1cc[n+](O)c1` [1,3-dihydroxyimidazolium bis(trifluoromethylsulfonyl)imide], the speed of sound is recorded as 1163.1 ± 6.3 m/s.

Take `CCCO` [propan-1-ol]: the speed of sound came out at 1155.5 ± 6 m/s.

As for `CC[S+](CC)CC.O=S(=O)([N-]S(=O)(=O)C(F)(F)F)C(F)(F)F` [triethylsulfonium bis((trifluoromethyl)sulfonyl)imide], the speed of sound came to 1212.7 ± 6.1 m/s.

The same series, now with this note: 313.15 K; 100 kPa; Liquid; Vibrating tube method.
Turning to `C=CCn1cc[n+](C)c1.O=S(=O)([N-]S(=O)(=O)C(F)(F)F)C(F)(F)F`, the mass density was determined as 1484.45 ± 3.2 kg/m3.

Consider `CCCC[N+]1(C)CCCC1.O=S(=O)([N-]S(=O)(=O)C(F)(F)F)C(F)(F)F`, for which the mass density amounted to 1381.05 ± 3.2 kg/m3.

With `O=S(=O)([N-]S(=O)(=O)C(F)(F)F)C(F)(F)F.On1cc[n+](O)c1` [1,3-dihydroxyimidazolium bis(trifluoromethylsulfonyl)imide], the mass density is listed as 1722.79 ± 4.2 kg/m3.

`CCCO` [propan-1-ol]: the mass density is on record as 787.43 ± 1.6 kg/m3.

On to `CC[S+](CC)CC.O=S(=O)([N-]S(=O)(=O)C(F)(F)F)C(F)(F)F` [triethylsulfonium bis((trifluoromethyl)sulfonyl)imide], for which the mass density is 1445.52 ± 3 kg/m3.

Still in this series, the particulars now being: 318.15 K; 100 kPa; Liquid; Capillary tube (Ostwald / Ubbelohde) method.
On to `C=CCn1cc[n+](C)c1.O=S(=O)([N-]S(=O)(=O)C(F)(F)F)C(F)(F)F`, for which the viscosity is 17.51 ± 1.4 mPa·s.

For `CCCC[N+]1(C)CCCC1.O=S(=O)([N-]S(=O)(=O)C(F)(F)F)C(F)(F)F`, the viscosity came to 34.3 ± 2.8 mPa·s.

For the molecule `O=S(=O)([N-]S(=O)(=O)C(F)(F)F)C(F)(F)F.On1cc[n+](O)c1` [1,3-dihydroxyimidazolium bis(trifluoromethylsulfonyl)imide], the viscosity is recorded as 59.8 ± 4.8 mPa·s.

Turning to `CCCO` [propan-1-ol], the viscosity came out at 1.211 ± 0.097 mPa·s.

In the case of `CC[S+](CC)CC.O=S(=O)([N-]S(=O)(=O)C(F)(F)F)C(F)(F)F` [triethylsulfonium bis((trifluoromethyl)sulfonyl)imide], the viscosity was 16.53 ± 1.3 mPa·s.

The same series, now with this note: 318.15 K; 100 kPa; Liquid; Frequency=3 MHz; Single path-length method.
Turning to `C=CCn1cc[n+](C)c1.O=S(=O)([N-]S(=O)(=O)C(F)(F)F)C(F)(F)F`, the speed of sound is 1196 ± 6.2 m/s.

Regarding `CCCC[N+]1(C)CCCC1.O=S(=O)([N-]S(=O)(=O)C(F)(F)F)C(F)(F)F`, the speed of sound turned out to be 1225.3 ± 6.3 m/s.

On to `O=S(=O)([N-]S(=O)(=O)C(F)(F)F)C(F)(F)F.On1cc[n+](O)c1` [1,3-dihydroxyimidazolium bis(trifluoromethylsulfonyl)imide], for which the speed of sound was determined as 1152.3 ± 6.3 m/s.

As to `CCCO` [propan-1-ol], the speed of sound came out at 1138.7 ± 6 m/s.

(Values after the NIST ThermoML archive (doi:10.1021/acs.jced.8b00537).)
